The values below are quoted from earlier work in US20190144909A1, “METHODS OF MODULATING BCKDH” (NESTEC S.A., priority 2016, published 2019).

The subject of data set [1] is branched-chain alpha-keto acid dehydrogenase E1 B subunit (BCKDHB).
In data set [2] the test system is branched-chain alpha-keto acid dehydrogenase E1 A subunit (BCKDHA).
Data set [3] relates to branched-chain alpha-keto acid dehydrogenase kinase (BCKDH kinase).
Another data set concerns BCKDH kinase. To be noted: Shimomura et al. (2006) J. Nutr. 136: 250S-253S.
The mark [4] stands for this setting: BCKDHA, Table 1b, from Comparative Toxicogenomics Database.
The mark [5] stands for this setting: BCKDH kinase, Table 2, from Comparative Toxicogenomics Database.
Setting [6] is: BCKDHB, Table 1a, from Comparative Toxicogenomics Database.

“Also recorded” adds a separate entry of the source. Read-outs that look alike come from different tables or passages of the source.

For the compound `Clc1cc2c(cc1Cl)Oc1cc(Cl)c(Cl)cc1O2`, the “Interaction Actions” value in data set [1] is “affects expression”; in data set [2] it was “affects expression; also recorded: affects cotreatment/; also recorded: increases expression”; in data set [3], “affects reaction/; also recorded: decreases expression; also recorded: affects expression”.

For the compound `c1cc2ccc3ccc4ccc5cccc6c(c1)c2c3c4c56` [1,12-benzoperylene], the “Interaction Actions” value in data set [2] is “increases expression”.

Take `C#CC1(O)CC[C@H]2[C@@H]3C(O)C=C4CC(O)CC[C@]4(C)[C@H]3CC[C@@]21C` (stereo partly shown) [17-ethynyl-5-androstene-3,7,17-triol]: the “Interaction Actions” value in data set [2] (setting [4]) is reported as “affects binding”.

Consider `CC(=O)Nc1ccc(O)cc1` [Acetaminophen, reference compound], for which the “Interaction Actions” value in data set [2] (setting [4]) was “affects expression; also recorded: increases expression”; in data set [3] (setting [5]) it was “affects expression”.

Regarding `Cl.N` [Ammonium Chloride], the “Interaction Actions” value in data set [1], in data set [2] and in data set [3] was “affects expression” in each case.

In the case of `OC[C@H]1O[C@@H](Oc2ccc(O)cc2)[C@H](O)[C@@H](O)[C@@H]1O` [Arbutin], the “Interaction Actions” value in data set [3] (setting [5]) is given as “decreases expression”.

On to `CCNc1nc(Cl)nc(NC(C)C)n1` [Atrazine], for which the “Interaction Actions” value in data set [2] (setting [4]) is recorded as “increases expression”; in data set [3] (setting [5]), “decreases expression”.

`c1ccc2c(c1)cc1ccc3cccc4ccc2c1c34` [Benzo(a)pyrene]: the “Interaction Actions” value in data set [1] (setting [6]) is given as “affects expression/; also recorded: affects reaction; also recorded: increases expression”.

Take `CC(C)(c1ccc(O)cc1)c1ccc(O)cc1` [Bisphenol A]: the “Interaction Actions” value in data set [2] (setting [4]) is “increases expression”; in data set [3] (setting [5]) it was “affects expression”.

On to `NC(=O)N1c2ccccc2C=Cc2ccccc21` [Carbamazepine, reference compound], for which the “Interaction Actions” value in data set [2] (setting [4]) was “affects expression”.

`ClC(Cl)(Cl)Cl` [Carbon Tetrachloride]: in data set [2], the “Interaction Actions” value is on record as “increases expression”.

Take `C=CC(=C)Cl` [Chloroprene]: the “Interaction Actions” value in data set [2] was “increases expression”.

On to `CC(C)(Oc1ccc(Cl)cc1)C(=O)O` [Clofibric Acid], for which the “Interaction Actions” value in data set [3] (setting [5]) is “affects cotreatment/; also recorded: affects expression”.

Consider `[Cl-].[Cl-].[Co+2]` [Cobaltous chloride], for which the “Interaction Actions” value in data set [3] is “decreases expression”.

Regarding `[Cu]` [Copper], the “Interaction Actions” value in data set [3] was “affects binding/; also recorded: decreases expression”.

Take `O=C(NN=C1CCCCC1)C(=O)NN=C1CCCCC1` [Cuprizone, reference compound]: the “Interaction Actions” value in data set [1] is recorded as “increases expression”.

Consider `CCCCOC(=O)c1ccccc1C(=O)OCCCC` [Dibutyl Phthalate], for which the “Interaction Actions” value in data set [3] (setting [5]) is “decreases expression”.

Consider `CCN(CC)N=O` [Diethylnitrosamine], for which the entries for the “Interaction Actions” value in data set [1] and in data set [3] were “increases expression” and “affects cotreatment/; also recorded: affects expression”, respectively.

For the compound `O=c1[nH]cc(F)c(=O)[nH]1` [Fluorouracil, reference compound], the “Interaction Actions” value in data set [2] (setting [4]) was “affects expression”.

Turning to `c1ccoc1` [Furan], the “Interaction Actions” value in data set [2] is “affects binding”.

As to `OO` [Hydrogen Peroxide], in data set [3] (setting [5]), the “Interaction Actions” value is “affects expression”.

As for `OCl` [Hypochlorous Acid], the “Interaction Actions” value in data set [3] (setting [5]) is given as “decreases expression”.

Consider `CNC1(c2ccccc2Cl)CCCCC1=O` (stereo not shown) [Ketamine, reference compound], for which the “Interaction Actions” value in data set [2] is “increases expression”.

For `COCC(=O)O` [Methoxyacetic acid], in data set [3] (setting [5]), the “Interaction Actions” value is given as “affects expression”.

Regarding `[CH3][Hg][Cl]` [Methylmercuric chloride], the “Interaction Actions” value in data set [1] and in data set [2] was “increases expression” throughout.

Take `C[C@@H]1Cc2c(Cl)cc(C(=O)N[C@@H](Cc3ccccc3)C(=O)O)c(O)c2C(=O)O1` [Ochratoxin A]: in data set [3], the “Interaction Actions” value is given as “decreases expression”.

`CC12CC1(C)C(=O)N(c1cc(Cl)cc(Cl)c1)C2=O` (stereo not shown) [Procymidone]: the “Interaction Actions” value in data set [3] (setting [5]) is “decreases expression”.

As to `[Na+].[Na+].[O]=[Cr](=[O])([O-])[O][Cr](=[O])(=[O])[O-]` [Sodium bichromate], in data set [3], the “Interaction Actions” value was “decreases expression”.

On to `C/C=C(/C)C(=O)O[C@H]1C(C)=C2[C@H]([C@@H]1OC(=O)CCCCCCC)[C@@](C)(OC(C)=O)C[C@H](OC(=O)CCC)[C@@]1(O)[C@H]2OC(=O)[C@@]1(C)O` [Thapsigargin, reference compound], for which, in data set [3] (setting [5]), the “Interaction Actions” value is listed as “decreases expression”.

As for `CC[C@@]1(O)C(=O)OCc2c1cc1n(c2=O)Cc2cc3c(CN(C)C)c(O)ccc3nc2-1` [Topotecan, reference compound], in data set [2] (setting [4]), the “Interaction Actions” value is recorded as “affects response”.

With `CCCC(CCC)C(=O)O` [Valproic Acid, reference compound], the results for the “Interaction Actions” value in data set [1] (setting [6]), in data set [2] (setting [4]) and in data set [3] (setting [5]) were “affects expression; also recorded: increases expression”, “affects expression” and “affects expression”, respectively.

Turning to `CN[C@H](CC(C)C)C(=O)N[C@H]1C(=O)N[C@@H](CC(N)=O)C(=O)N[C@H]2C(=O)N[C@H]3C(=O)N[C@H](C(=O)N[C@H](C(=O)O)c4cc(O)cc(O)c4-c4cc3ccc4O)[C@H](O)c3ccc(c(Cl)c3)Oc3cc2cc(c3O[C@@H]2O[C@H](CO)[C@@H](O)[C@H](O)[C@H]2O[C@H]2C[C@](C)(N)[C@H](O)[C@H](C)O2)Oc2ccc(cc2Cl)[C@H]1O` [Vancomycin, reference compound], the “Interaction Actions” value in data set [1] and in data set [2] was “increases expression” in each case.

Take `C=CC1(C)OC(=O)N(c2cc(Cl)cc(Cl)c2)C1=O` (stereo not shown) [Vinclozolin]: the “Interaction Actions” value in data set [2] (setting [4]) is reported as “increases expression”.

On to `Cc1cccc(Nc2cc(Cl)nc(SCC(=O)O)n2)c1C` [pirinixic acid, reference compound], for which the “Interaction Actions” value in data set [1] (setting [6]) and in data set [2] (setting [4]) was “increases expression” each time.

Consider `CC(C)CC(Cl)C(=O)O` (stereo not drawn) [α-chloroisocaproic acid], for which, in the data set with BCKDH kinase, the “inhibitor of BCKDH kinase” value is given as “most potent known inhibitor of BCKDH kinase”.

With `CC(C)CC(=O)C(=O)O` [α-ketoisocaproic acid], the “inhibitor of BCKDH kinase” value in the data set on BCKDH kinase is on record as “known physiological inhibitor of BCKDH kinase”.

Consider Tunicamycin [reference compound], for which the “Interaction Actions” value in data set [2] is “increases expression”; in data set [3], “decreases expression”.

In the case of potassium chromate(VI), the “Interaction Actions” value in data set [1] was “increases expression”.
